Measurements: US11613531B2, “Inhibitors of RHO associated coiled-coil containing protein kinase” (Kadmon Corporation, LLC, priority 2017, dated 2023)

Test system: ppMlc (T18/S19) levels in A7R5 cells
Assay: A7R5 in-cell ELISA (pMLC)
Type: cell-based, Rat
Settings: Rattus norvegicus, A7R5, A7R5 cells, 1 μM compound; read-out: pMLC % inh A7R5 @ [conc]
Experimental: Determination of Compounds ROCK Inhibitory Activity in A7R5Cells.
Rat aortic smooth muscle cell line, A7R5, cells were seeded with density of 5,000 cells/well in a 96-well plates for 24 hours and subsequently treated for 90 min with testing compounds. Cells were then fixed and processed according to the In-Cell ELISA Colorimetric Detection Kit manual (Thermo Scientific).
An A7R5 in-cell Elisa assay was performed. A7R5 cells were treated with 9 points 2 fold serial dilution of compounds and ppMlc (T18/S19) levels were determined to calculate cellular IC50 values of the compounds. Compounds of the invention gave in cell IC50s under 100 nM.
In vitro activities for the compounds were measured with Z′-lyte kinase kit (ThermoFisher Scientific). The percent inhibition rate was calculated by normalizing the kinase activity value obtained with 1 μM compound treatment against DMSO control value and then applied to the formula, [1-(compound/DMSO)]×100%. IC50s were calculated using the nonlinear regression curve fit function of the GraphPad Prism software with kinase activities data measured with 9 points 2-fold serial dilution of compounds treatment. In cell pMLC IC50s were calculated with data obtained from A7R5 cell experiments. A7R5 cells were treated with 9 points 2-fold serial dilution of compounds and ppMlc (T18/S19) levels were determined to calculate cellular IC50 values of the compounds using the nonlinear regression curve fit function of the GraphPad Prism software. NIH3T3 cells stably expressing ACTA2-promoter-driven-luciferase were applied to measure ROCK compounds functional IC50s in cells. Cells were plated in 96 well plates to confluence and treated with 9 points serial dilution of compounds in combination with TGFβ1 for 24 hr. Luciferase activities were measured and compound's IC50s were calculated using the nonlinear regression curve fit function of the GraphPad Prism software.

SMILES | inhibition at 1 µM [%]
Cc1cc(Nc2ccc3[nH]ncc3c2)nc(N2CC3(CCNC3)C2)n1 [Example 126, N-(6-methyl-2-(2,6-diazaspiro[3.4]octan-2-yl)pyrimidin-4-yl)-1H-indazol-5-amine] | -12.3
Cc1cc(Nc2ccc3[nH]ncc3c2)nc(N2CC3(CCNCC3)C2)n1 [Example 127, N-(6-methyl-2-(2,7-diazaspiro[3.5]nonan-2-yl)pyrimidin-4-yl)-1H-indazol-5-amine] | -7.2
Cc1cc(Nc2ccc3[nH]ncc3c2)nc(N2CC3(CNC3)C2)n1 [Example 128, N-(6-methyl-2-(2,6-diazaspiro[3.3]heptan-2-yl)pyrimidin-4-yl)-1H-indazol-5-amine] | -8.3
Cc1cc(Nc2ccc3[nH]ncc3c2)nc(N2CCCC(C3CCCNC3)C2)n1 (stereo not shown) [Example 136, N-(2-([3,3′-bipiperidin]-1-yl)-6-methylpyrimidin-4-yl)-1H-indazol-5-amine] | 1.1
Cc1cc(Nc2ccc3[nH]ncc3c2)nc(N2CC(C3CCCNC3)c3ccccc32)n1 (stereo not shown) [Example 139, N-(6-methyl-2-(3-(piperidin-3-yl)indolin-1-yl)pyrimidin-4-yl)-1H-indazol-5-amine] | 2.2
OCC1CNCCN1c1ncc(F)c(Nc2ccc3[nH]ncc3c2)n1 (stereo not shown) [Example 156, (1-(4-((1H-indazol-5-yl)amino)-5-fluoropyrimidin-2-yl)piperazin-2-yl)methanol] | 7.1
Fc1cnc(N2CCC3(CC2)CNC3)nc1Nc1ccc2[nH]ncc2c1 [Example 158, N-(5-fluoro-2-(2,7-diazaspiro[3.5]nonan-7-yl)pyrimidin-4-yl)-1H-indazol-5-amine] | -1.1
Fc1cnc(N2CCC3(CNC3)C2)nc1Nc1ccc2[nH]ncc2c1 [Example 159, N-(5-fluoro-2-(2,6-diazaspiro[3.4]octan-6-yl)pyrimidin-4-yl)-1H-indazol-5-amine] | -12.2
Fc1cnc(N2CCC3(CC2)CNCCO3)nc1Nc1ccc2[nH]ncc2c1 [Example 160, N-(5-fluoro-2-(1-oxa-4,9-diazaspiro[5.5]undecan-9-yl)pyrimidin-4-yl)-1H-indazol-5-amine] | 5.9
Fc1cnc(N2CCC3(CCCNC3)C2)nc1Nc1ccc2[nH]ncc2c1 (stereo not shown) [Example 161, N-(5-fluoro-2-(2,7-diazaspiro[4.5]decan-2-yl)pyrimidin-4-yl)-1H-indazol-5-amine] | 2.6
Fc1cnc(N2CCCC3(CCNC3)C2)nc1Nc1ccc2[nH]ncc2c1 (stereo not shown) [Example 162, N-(5-fluoro-2-(2,7-diazaspiro[4.5]decan-7-yl)pyrimidin-4-yl)-1H-indazol-5-amine] | 16.7
Fc1cnc(N2CC3(CCNC3)C2)nc1Nc1ccc2[nH]ncc2c1 [Example 163, N-(5-fluoro-2-(2,6-diazaspiro[3.4]octan-2-yl)pyrimidin-4-yl)-1H-indazol-5-amine] | -7.8
Fc1cnc(N2CC3(CCNCC3)C2)nc1Nc1ccc2[nH]ncc2c1 [Example 164, N-(5-fluoro-2-(2,7-diazaspiro[3.5]nonan-2-yl)pyrimidin-4-yl)-1H-indazol-5-amine] | -8.3
Fc1cnc(N2CC3(CNC3)C2)nc1Nc1ccc2[nH]ncc2c1 [Example 165, N-(5-fluoro-2-(2,6-diazaspiro[3.3]heptan-2-yl)pyrimidin-4-yl)-1H-indazol-5-amine] | -10.2
Fc1cnc(N2CCC3NCCC3C2)nc1Nc1ccc2[nH]ncc2c1 (stereo not shown) [Example 168, N-(5-fluoro-2-(octahydro-5H-pyrrolo[3,2-c]pyridin-5-yl)pyrimidin-4-yl)-1H-indazol-5-amine] | 12.2
Fc1cnc(N2CCCC(C3CCCNC3)C2)nc1Nc1ccc2[nH]ncc2c1 (stereo not shown) [Example 171, N-(2-([3,3′-bipiperidin]-1-yl)-5-fluoropyrimidin-4-yl)-1H-indazol-5-amine] | -9.6
Fc1cnc(N2CCC(C3CNC3)C2)nc1Nc1ccc2[nH]ncc2c1 (stereo not shown) [Example 172, N-(2-(3-(azetidin-3-yl)pyrrolidin-1-yl)-5-fluoropyrimidin-4-yl)-1H-indazol-5-amine] | -9.9

Same assay, conditions: Rattus norvegicus, A7R5, A7R5 cells, 10 μM compound; read-out: pMLC % inh A7R5 @ [conc]

SMILES | inhibition at 10 µM [%]
Fc1cnc(N2CCCNC(c3ccccc3)C2)nc1Nc1ccc2[nH]ncc2c1 (stereo not shown) [Example 141, N-(5-fluoro-2-(3-phenyl-1,4-diazepan-1-yl)pyrimidin-4-yl)-1H-indazol-5-amine] | 54.9
Fc1cnc(N2CCNC(c3ccccc3)CC2)nc1Nc1ccc2[nH]ncc2c1 (stereo not shown) [Example 142, N-(5-fluoro-2-(5-phenyl-1,4-diazepan-1-yl)pyrimidin-4-yl)-1H-indazol-5-amine] | 37.5
CC(C)C1CN(c2ncc(F)c(Nc3ccc4[nH]ncc4c3)n2)CCCN1 (stereo not shown) [Example 144, N-(5-fluoro-2-(3-isopropyl-1,4-diazepan-1-yl)pyrimidin-4-yl)-1H-indazol-5-amine] | 45.6
CC(C)C1CCN(c2ncc(F)c(Nc3ccc4[nH]ncc4c3)n2)CCN1 (stereo not shown) [Example 145, N-(5-fluoro-2-(5-isopropyl-1,4-diazepan-1-yl)pyrimidin-4-yl)-1H-indazol-5-amine] | 42.4
CC(C)C1CN(c2ncc(Cl)c(Nc3ccc4[nH]ncc4c3)n2)CCCN1 (stereo not shown) [Example 181, N-(5-chloro-2-(3-isopropyl-1,4-diazepan-1-yl)pyrimidin-4-yl)-1H-indazol-5-amine] | 36.5
CC(C)C1CCN(c2ncc(Cl)c(Nc3ccc4[nH]ncc4c3)n2)CCN1 (stereo not shown) [Example 182, N-(5-chloro-2-(5-isopropyl-1,4-diazepan-1-yl)pyrimidin-4-yl)-1H-indazol-5-amine] | 30.2
Clc1cnc(N2CCCNC(c3ccccc3)C2)nc1Nc1ccc2[nH]ncc2c1 (stereo not shown) [Example 183, N-(5-chloro-2-(3-phenyl-1,4-diazepan-1-yl)pyrimidin-4-yl)-1H-indazol-5-amine] | 43.1
Clc1cnc(N2CCNC(c3ccccc3)CC2)nc1Nc1ccc2[nH]ncc2c1 (stereo not shown) [Example 184, N-(5-chloro-2-(5-phenyl-1,4-diazepan-1-yl)pyrimidin-4-yl)-1H-indazol-5-amine] | 34.1
c1ccc(C2CN(c3nccc(Nc4ccc5[nH]ncc5c4)n3)CCN2)cc1 (stereo not shown) [Example 224, N-(2-(3-phenylpiperazin-1-yl)pyrimidin-4-yl)-1H-indazol-5-amine] | 48
CC1CN(c2nccc(Nc3ccc4[nH]ncc4c3)n2)CC(C)N1 (stereo not shown) [Example 226, N-(2-(3,5-dimethylpiperazin-1-yl)pyrimidin-4-yl)-1H-indazol-5-amine] | 67.7
CC1(C)CN(c2nccc(Nc3ccc4[nH]ncc4c3)n2)CCN1 [Example 227, N-(2-(3,3-dimethylpiperazin-1-yl)pyrimidin-4-yl)-1H-indazol-5-amine] | 83.4
OCC1CNCCN1c1nccc(Nc2ccc3[nH]ncc3c2)n1 (stereo not shown) [Example 230, (1-(4-((1H-indazol-5-yl)amino)pyrimidin-2-yl)piperazin-2-yl)methanol] | 16.1
c1ccc(CC2CCNCCN2c2nc3c(c(Nc4ccc5[nH]ncc5c4)n2)COC3)cc1 (stereo not shown) [Example 236, 2-(7-benzyl-1,4-diazepan-1-yl)-N-(1H-indazol-5-yl)-5,7-dihydrofuro[3,4-d]pyrimidin-4-amine] | 80.8
CC1CN(c2nccc(Nc3ccc(-c4cn[nH]c4)cc3)n2)CCN1 (stereo not shown) [Example 252, N-(4-(1H-pyrazol-4-yl)phenyl)-2-(3-methylpiperazin-1-yl)pyrimidin-4-amine] | 65
CC1CNCCN1c1nccc(Nc2ccc(-c3cn[nH]c3)cc2)n1 (stereo not shown) [Example 253, N-(4-(1H-pyrazol-4-yl)phenyl)-2-(2-methylpiperazin-1-yl)pyrimidin-4-amine] | 41.5
CC1(C)CN(c2nccc(Nc3ccc(-c4cn[nH]c4)cc3)n2)CCN1 [Example 255, N-(4-(1H-pyrazol-4-yl)phenyl)-2-(3,3-dimethylpiperazin-1-yl)pyrimidin-4-amine] | 72
CC1CN(c2nccc(Nc3ccc(-c4cn[nH]c4)cc3)n2)CC(C)N1 (stereo not shown) [Example 256, N-(4-(1H-pyrazol-4-yl)phenyl)-2-(3,5-dimethylpiperazin-1-yl)pyrimidin-4-amine] | 84.5
c1cc(Nc2ccc(-c3cn[nH]c3)cc2)nc(N2C3CCC2CNC3)n1 [Example 257, N-(4-(1H-pyrazol-4-yl)phenyl)-2-(3,8-diazabicyclo[3.2.1]octan-8-yl)pyrimidin-4-amine] | 85.6
c1cc(Nc2ccc(-c3cn[nH]c3)cc2)nc(N2CC3CCC(C2)N3)n1 [Example 258, N-(4-(1H-pyrazol-4-yl)phenyl)-2-(3,8-diazabicyclo[3.2.1]octan-3-yl)pyrimidin-4-amine] | 26

Same assay, conditions: Rattus norvegicus, A7R5, A7R5 cells, ppMlc (T18/S19)

IC50 [nM] | SMILES
2890 | Fc1cnc(N2CCCNC(c3ccccc3)C2)nc1Nc1ccc2[nH]ncc2c1 (stereo not shown) [Example 141, N-(5-fluoro-2-(3-phenyl-1,4-diazepan-1-yl)pyrimidin-4-yl)-1H-indazol-5-amine]
3350 | c1ccc(C2CN(c3nccc(Nc4ccc5[nH]ncc5c4)n3)CCN2)cc1 (stereo not shown) [Example 224, N-(2-(3-phenylpiperazin-1-yl)pyrimidin-4-yl)-1H-indazol-5-amine]
4690 | c1ccc(CC2CCNCCN2c2nc3c(c(Nc4ccc5[nH]ncc5c4)n2)COC3)cc1 (stereo not shown) [Example 236, 2-(7-benzyl-1,4-diazepan-1-yl)-N-(1H-indazol-5-yl)-5,7-dihydrofuro[3,4-d]pyrimidin-4-amine]
1170 | CC1CN(c2nccc(Nc3ccc(-c4cn[nH]c4)cc3)n2)CCN1 (stereo not shown) [Example 252, N-(4-(1H-pyrazol-4-yl)phenyl)-2-(3-methylpiperazin-1-yl)pyrimidin-4-amine]
1360 | CC1(C)CN(c2nccc(Nc3ccc(-c4cn[nH]c4)cc3)n2)CCN1 [Example 255, N-(4-(1H-pyrazol-4-yl)phenyl)-2-(3,3-dimethylpiperazin-1-yl)pyrimidin-4-amine]
1560 | CC1CN(c2nccc(Nc3ccc(-c4cn[nH]c4)cc3)n2)CC(C)N1 (stereo not shown) [Example 256, N-(4-(1H-pyrazol-4-yl)phenyl)-2-(3,5-dimethylpiperazin-1-yl)pyrimidin-4-amine]

SMILES | IC50 [nM]
c1cc(Nc2ccc(-c3cn[nH]c3)cc2)nc(N2C3CCC2CNC3)n1 [Example 257, N-(4-(1H-pyrazol-4-yl)phenyl)-2-(3,8-diazabicyclo[3.2.1]octan-8-yl)pyrimidin-4-amine] | 2070
